According to patent US20160137639A1, “TRIAZOLE-ISOXAZOLE COMPOUND AND MEDICAL USE THEREOF” (JAPAN TOBACCO INC., priority 2012, published 2016):
Like-named read-outs stand apart in the source and are kept apart here.

What was measured:
mouse RORγ = molecular target: T1, mouse RORγ (Mus musculus, UniProt P51450); assay: Luciferase reporter gene assay of inhibitory effect against RORγ transcriptional activity (GAL4-mRORγ plasmid in CHO cells); assay type: cell-based
T1 construct: mouse, NM_011281.2 and from Ile251 to Lys516; expressed in transfected cells; host or cells: CHO cells (transient co-transfection with pG5-Luc reporter)
T1 sequence (P51450 251-516): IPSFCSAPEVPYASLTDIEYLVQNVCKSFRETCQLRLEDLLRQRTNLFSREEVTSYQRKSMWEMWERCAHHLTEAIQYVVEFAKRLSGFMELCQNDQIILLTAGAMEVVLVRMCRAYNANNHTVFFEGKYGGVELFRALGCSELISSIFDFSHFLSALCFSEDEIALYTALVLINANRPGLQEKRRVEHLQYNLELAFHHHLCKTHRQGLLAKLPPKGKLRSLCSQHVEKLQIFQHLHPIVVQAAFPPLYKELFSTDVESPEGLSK
In short: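 Readout is intracellular luciferase after 2-day compound exposure (8 concentrations, 0.1% DMSO) in CHO cells expressing GAL4 fused to mouse RORγ LBD residues Ile251–Lys516 plus pG5-Luc reporter. EC50 fitted from %-of-control; points showing resazurin-detected cytotoxicity dropped.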

human RORγ = molecular target: T2, human RORγ (Homo sapiens, UniProt P51449); assay: Luciferase reporter gene assay of inhibitory effect against RORγ transcriptional activity (GAL4-hRORγ plasmid in CHO cells); assay type: cell-based
T2 construct: human, NM_005060.3 and from Ser253 to Lys518; expressed in transfected cells; host or cells: CHO cells (transient co-transfection with pG5-Luc reporter)
T2 sequence (P51449 253-518): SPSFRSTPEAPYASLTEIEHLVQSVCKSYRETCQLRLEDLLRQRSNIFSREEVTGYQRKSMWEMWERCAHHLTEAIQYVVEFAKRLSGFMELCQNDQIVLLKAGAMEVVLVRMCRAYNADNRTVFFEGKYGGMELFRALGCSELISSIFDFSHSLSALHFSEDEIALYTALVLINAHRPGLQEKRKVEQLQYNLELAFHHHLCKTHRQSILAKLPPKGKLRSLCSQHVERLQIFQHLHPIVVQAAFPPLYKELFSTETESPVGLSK

CNC(=O)[C@H]1CC[C@H](CCc2nnc(CCC(=O)Nc3cccc(Cl)c3C)n2C2CC2)CC1 [Example F-255]
EC50 (mouse RORγ; read-out: LUC EC50 (μM) mRORg): > 3 µM
EC50 (human RORγ; read-out: LUC EC50 (μM) hRORg): > 3 µM

Cc1ccc(NC(=O)[C@H]2CCCN(C)[C@@H]2c2nnc(CCC3CCCCC3)n2C2CC2)c(C)c1 [Example F-295]
EC50 (mouse RORγ; read-out: LUC EC50 (μM) mRORg): < 3 µM
EC50 (human RORγ; read-out: LUC EC50 (μM) hRORg): < 3 µM

Cc1ccc(NC(=O)CCc2nnc(CCC(C)C)n2C2CC2)cc1C [Example F-74]
EC50 (mouse RORγ; read-out: LUC EC50 (μM) mRORg): > 3 µM
EC50 (human RORγ; read-out: LUC EC50 (μM) hRORg): > 3 µM

Cc1ccc(NC(=O)C[C@H](CCC(=O)O)c2nnn([C@H]3C[C@@H](CC(C)(C)C(C)C)C3)c2C(F)(F)F)c(F)c1 [Example F-707]
EC50 (mouse RORγ; read-out: LUC EC50 mRORg): < 3 µM
EC50 (human RORγ; read-out: LUC EC50 hRORg): < 3 µM

Cc1c(Cl)cccc1NC(=O)CCc1nnc(CCC2CCCCC2)n1C1CC1 [Example F-94]
EC50 (mouse RORγ; read-out: LUC EC50 (μM) mRORg): < 3 µM
EC50 (human RORγ; read-out: LUC EC50 (μM) hRORg): < 3 µM

CC(C)(C)Cc1cc(-c2noc([C@@H](CCC(=O)O)CC(=O)Nc3ccc(Cl)cc3F)c2C2CC2)no1 [Example E-76]
EC50 (mouse RORγ; read-out: LUC EC50 (μM) mRORg): < 3 µM
EC50 (human RORγ; read-out: LUC EC50 (μM) hRORg): < 3 µM

CC(C)C[C@H]1C[C@@H](c2nnc([C@@H](CCO)CC(=O)Nc3ccc(Cl)cc3F)n2C2CC2)C1 [Example F-519]
EC50 (mouse RORγ; read-out: LUC EC50 mRORg): < 3 µM
EC50 (human RORγ; read-out: LUC EC50 hRORg): < 3 µM

Cc1ccc(NC(=O)CCc2noc(CCCC(C)(C)C)c2C2CC2)c(Cl)c1 [Example F-729]
EC50 (mouse RORγ; read-out: LUC EC50 mRORg): < 3 µM
EC50 (human RORγ; read-out: LUC EC50 hRORg): < 3 µM

Cc1ccc(NC(=O)CC(CC(=O)N(C)C)c2nnc(CCCC(C)C)n2C2CC2)c(C)c1 (racemic) [Example F-266]
EC50 (mouse RORγ; read-out: LUC EC50 (μM) mRORg): < 3 µM
EC50 (human RORγ; read-out: LUC EC50 (μM) hRORg): < 3 µM

Cc1ccc(NC(=O)CC(CCOCc2ccccc2)c2nnc(-c3cc(CC(C)C)on3)n2C2CC2)c(C)c1 (racemic) [Example F-455]
EC50 (mouse RORγ; read-out: LUC EC50 (μM) mRORg): < 3 µM
EC50 (human RORγ; read-out: LUC EC50 (μM) hRORg): > 3 µM

Cc1ccc(NC(=O)C[C@H](CCO)c2nnc([C@H]3C[C@@H](CC(C)(C)C)C3)n2C2CC2)c(C)c1 [Example F-561]
EC50 (mouse RORγ; read-out: LUC EC50 mRORg): < 3 µM
EC50 (human RORγ; read-out: LUC EC50 hRORg): < 3 µM

COc1cccc(CC(CC(=O)Nc2ccc(C)cc2C)c2nnc([C@H]3C[C@@H](CC(C)C)C3)n2C2CC2)n1 (mixture of isomers) [Example F-504]
EC50 (mouse RORγ; read-out: LUC EC50 mRORg): < 3 µM
EC50 (human RORγ; read-out: LUC EC50 hRORg): < 3 µM

CCN(CC)CC(=O)N1C[C@H](C(=O)Nc2ccc(C)cc2C)[C@@H](c2nnc([C@H]3C[C@@H](CC(C)C)C3)n2C2CC2)C1 [Example F-654]
EC50 (mouse RORγ; read-out: LUC EC50 mRORg): < 3 µM
EC50 (human RORγ; read-out: LUC EC50 hRORg): > 3 µM

COc1cc(C)ccc1CNC(=O)[C@H]1CCCN(C)[C@@H]1c1nnc(CCC2CCCCC2)n1C1CC1 [Example F-267]
EC50 (mouse RORγ; read-out: LUC EC50 (μM) mRORg): < 3 µM
EC50 (human RORγ; read-out: LUC EC50 (μM) hRORg): < 3 µM

Cc1ccc(NC(=O)CCc2nnc([C@H]3C[C@H](CC(C)(C)C)C3)n2C2CC2)c(C)c1 [Example F-425]
EC50 (mouse RORγ; read-out: LUC EC50 (μM) mRORg): < 3 µM
EC50 (human RORγ; read-out: LUC EC50 (μM) hRORg): < 3 µM

Cc1ccc(NC(=O)C[C@@H](C[C@H](O)CO)c2nnc(CCCC(C)C)n2C2CC2)c(C)c1 [Example F-342]
EC50 (mouse RORγ; read-out: LUC EC50 (μM) mRORg): > 3 µM
EC50 (human RORγ; read-out: LUC EC50 (μM) hRORg): > 3 µM

CC(=O)N1C[C@@H](C(=O)Nc2ccc(C)cc2C)[C@H](c2nnc(CCC3CCCCC3)n2C2CC2)C1 [Example F-375]
EC50 (mouse RORγ; read-out: LUC EC50 (μM) mRORg): > 3 µM
EC50 (human RORγ; read-out: LUC EC50 (μM) hRORg): > 3 µM

Cc1ccc(NC(=O)C[C@H](CCC(=O)O)n2nnc([C@H]3C[C@@H](CC(C)(C)C)C3)c2C2CC2)c(F)c1 [Example F-703]
EC50 (mouse RORγ; read-out: LUC EC50 mRORg): < 3 µM
EC50 (human RORγ; read-out: LUC EC50 hRORg): < 3 µM

Cc1cc(Cl)ccc1NC(=O)C[C@H](CCC(=O)O)c1noc(-c2cc(CCC(C)(C)C)on2)c1C1CC1 [Example E-38]
EC50 (mouse RORγ; read-out: LUC EC50 (μM) mRORg): < 3 µM
EC50 (human RORγ; read-out: LUC EC50 (μM) hRORg): < 3 µM

Cc1ccc(NC(=O)C[C@@H](CCO)c2nnc(-c3cc(CC(C)C)on3)n2C2CC2)c(C)c1 [Example F-458]
EC50 (mouse RORγ; read-out: LUC EC50 (μM) mRORg): > 3 µM
EC50 (human RORγ; read-out: LUC EC50 (μM) hRORg): > 3 µM

Cc1ccc(NC(=O)C[C@H](OCCO)c2nnc([C@H]3C[C@@H](CC(C)C)C3)n2C2CC2)c(C)c1 [Example F-434]
EC50 (mouse RORγ; read-out: LUC EC50 (μM) mRORg): < 3 µM
EC50 (human RORγ; read-out: LUC EC50 (μM) hRORg): < 3 µM

Cc1ccc(NC(=O)C[C@H](CCC(=O)O)c2noc(-c3nc(C)c(CC(C)C)s3)c2C2CC2)c(Cl)c1 [Example E-27]
EC50 (mouse RORγ; read-out: LUC EC50 (μM) mRORg): < 3 µM
EC50 (human RORγ; read-out: LUC EC50 (μM) hRORg): < 3 µM

Cc1ccc(NC(=O)CCc2nnn(CCC3CCCCC3)c2C2CC2)c(C)c1 [Example F-443]
EC50 (mouse RORγ; read-out: LUC EC50 (μM) mRORg): < 3 µM
EC50 (human RORγ; read-out: LUC EC50 (μM) hRORg): < 3 µM

Cc1ccc(NC(=O)C(C)C(CCO)c2nnc([C@H]3C[C@@H](CC(C)C)C3)n2C2CC2)c(C)c1 (single isomer, unassigned) [Example F-492]
EC50 (mouse RORγ; read-out: LUC EC50 (μM) mRORg): > 3 µM
EC50 (human RORγ; read-out: LUC EC50 (μM) hRORg): > 3 µM

Cc1ccc(Cl)cc1NC(=O)CCc1nnc(CCC(C)C)n1C1CC1 [Example F-131]
EC50 (mouse RORγ; read-out: LUC EC50 (μM) mRORg): > 3 µM
EC50 (human RORγ; read-out: LUC EC50 (μM) hRORg): > 3 µM

CCn1c(C(O)CC(=O)Nc2cccc3ccccc23)nnc1C1Cc2ccccc2C1 (racemic) [Example F-34]
EC50 (mouse RORγ; read-out: LUC EC50 (μM) mRORg): > 3 µM
EC50 (human RORγ; read-out: LUC EC50 (μM) hRORg): > 3 µM
